Patent US10093929B2, “Modular RNA regulators and methods” (STC.UNM, priority 2013, dated 2018)

Assays:
RNase III = conditions: cited from earlier work
FKBP12 = FKBP12 (Homo sapiens, UniProt P62942); conditions: cited from earlier work
[1] = system: FKBP12-fusion proteins (GAL4DBD-FKBP, VPAD-FKBP); assay: FK1012-inducible luciferase transcription assay in CHO cells; assay type: cell-based; conditions: 200 nM, 10 hours
Method: Previously, syntheses of FK1012 variants either involve multi-step transformations with 18% overall yields, or a single-step cross metathesis with 50% yield with a 22-hour reaction time. […] Using dithiothreitol (DTT) as the linker, two equivalents of tacrolimus and one equivalent of DTT were coupled under the TEC reaction condition to produce FK1012-DT (Compound 15, FIG. 12) in one step within 15 minutes in quantitative yield (FIG. 12, Scheme (a)). […] For the assay, two DNA constructs were prepared, each one encoding an FKBP12-fusion protein. […]
Cells in 24-well plates were lysed with 100 μL of 1× Passive Lysis Buffer (Promega Corporation, Madison, Wis.) at room temperature for 10 minutes on a shaker. […] 90 μL of Luciferase substrate solution (5 mg of D-luciferin and 7 mg of coenzyme A in 33mL of Luciferase reading buffer, which includes 20 mM tricine, 1.07 mM (MgCO3)4Mg(OH)2.5H2O, 2.67 mM MgSO4, 0.1 mM EDTA, 33.3 mM dithiothreitol and 0.53 mM ATP in water) was added into each well with cell lysates. The signal was read with a 3 s delay and 1 s integration with GLOMAX multi-detection system (Promega Corp., Madison, Wis.). Obtained data were analyzed by KALEIDAGRAPH (Synergy Software, Reading, Pa.).

Sequence of FKBP12 (P62942 whole entry, species assumed, the tested form may be a part): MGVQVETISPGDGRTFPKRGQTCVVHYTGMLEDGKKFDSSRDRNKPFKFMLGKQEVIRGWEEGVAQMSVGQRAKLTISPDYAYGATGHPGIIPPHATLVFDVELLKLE

O=C1c2ccccc2C(=O)N1O [N-hydroxyphthalimide]
affinity as RNase III inhibitor (RNase III): low affinity

CCC(C)(C)C(=O)C(=O)N1CCCC[C@H]1C(=O)O[C@H](CCc1ccc(OC)c(OC)c1)c1cccc(N)c1 [SLF, (1R)-1-(3-aminophenyl)-3-(3,4-dimethoxyphenyl)propyl ester-1-(3,3-dimethyl-1,2-dioxopentyl)-2S-piperidinecarboxylic acid]
decrease of affinity for FKBP12 compared to tacrolimus (FKBP12): 10 fold

C=CC[C@@H]1/C=C(\C)C[C@H](C)C[C@H](OC)[C@H]2O[C@@](O)(C(=O)C(=O)N3CCCC[C@H]3C(=O)O[C@H](/C(C)=C/[C@@H]3CC[C@@H](O)[C@H](OC)C3)[C@H](C)[C@@H](O)CC1=O)[C@H](C)C[C@@H]2OC [tacrolimus, Tacrolimus]
induction of luciferase (compared to the no drug control) [1]: not observed
